Assay results published in article PMC4467156, “A new chemical inhibitor of angiogenesis and tumorigenesis that targets the VEGF signaling pathway upstream of Ras” (Oncotarget, 2015).

Experiments:
HUVEC cells [1] = test: Boyden chamber cell migration assay; format: cell-based, human; conditions: 25 μM COB223 in upper chamber
Method: The assay was performed using 24-multiwell plates and individual cell culture inserts bearing a porous (size of pores: 3 μm) and dyed bottom membrane, which were purchased from BD (FluoroBlok^TM). HUVEC cells were rendered fluorescent by incubation for 24 h in the presence of 5 μg/ml of Di-I (1,1′-dioctadecyl-3,3,3′3′-tetramethylindocarbocyanine perchlorate) and subsequently seeded (5 × 10^4 cells/insert) in the upper chambers (inserts) in serum-free culture medium supplemented with 25 μM COB223 or with vehicle (DMSO). Serum supplemented medium (5% FCS) was placed in the lower chambers (plate wells). After incubation for 4 h or 24 h at 37°C, the fluorescence of cells that had passed through the dyed membrane was measured on a plate reader at 540 nm/570 nm excitation/emission wavelengths. […]
Figure S1: Effect of COB223 on endothelial cell migration. […] Wound closure was measured after 24 h and 48 h of incubation as described in Material and Methods. […]
(§1) (B) Boyden chamber assay: The technique is described in Material and Methods. We measured the passage of fluorescently labeled HUVEC cells through a 3 μm-porous membrane in response to fetal calf serum used as a chemo-attractant. […] The Figure represents the mean fluorescence ± SD of duplicate determinations after 24 h or 48h of incubation from two independent experiments. […]

Raf = test: In vitro kinase assay Raf; format: biochemical; conditions: concentrations up to 50 μM
Method: We first wondered whether COB223 required to be internalized to exert its biological effect. For this, we synthesized a covalent complex between BSA and COB223 and purified it. […] In vitro kinase assays were performed with a panel of purified protein-kinases involved in mitogenic signaling, including VEGFR2, FGFR1, FGFR2, PDGFRß, Met, Raf, MEK1, ERK1, ERK2, PKCα, PKCβI, PKCβII, PKCζ as indicated in Table 2. […] We then analyzed the effect of COB223 on VEGF-induced phosphorylations of VEGFR2, MEK and ERK1/2 (Figure 9). […] (Figure 9A, 9B). […] It was also specific of the p42/p44 MAP kinase pathway as activation of p38 MAP kinase phosphorylation in HUVEC cells by VEGF or serum was unaffected by COB223 (data not shown). The activation of src phosphorylation by VEGF in HUVECs was also unaffected by COB223 (data not shown).

LLC/2 tumor = test: Mouse LLC/2 tumor model; format: in vivo
Method: We chose this model because of its rapid growth in syngenic mice and its strong dependence on angiogenesis. LLC/2 cells (10^6 in 50 μL medium) were subcutaneously injected into the right flank of […] mice. Seven days after tumor inoculation, mice were given an intraperitoneal (i.p.) injection of either solvent (1.7% DMSO) or COB223 every other day. Tumor size was measured with calipers, and the volume was calculated according to the formula (L*w^2)/2 where L and […] stand for length and width respectively. All mice were killed 21 days after tumor grafting.
Tumors collected after animal sacrifice were split into two parts and fixed either in 4% paraformaldehyde (v/v) or in formalin fixative for 24 h at 4°C and embedded in paraffin and then cut into 7 μm sections. Sections were stained using specific antibodies and the avidin–biotin immunoperoxidase detection method. Endogenous peroxidase activity was quenched by pretreatment with 3% (v/v) hydrogen peroxide in methanol for 20 min. For endothelial immunohistochemistry detection, CD31 antibody (MEC13.3, BD Pharmingen) was incubated for 2 h at room temperature. The tissue sections were subsequently washed three times with PBS and incubated with biotinylated rabbit anti-rat IgG (1:250 dilution in blocking solution; Sigma-Aldrich, Saint-Quentin Fallavier, France) for 1 h at room temperature. After three PBS washes, the slides were incubated with an avidin: biotin complex (Vectastain ABC kit; Vector Laboratories, Burlingame, CA) for 45 minutes. After a final PBS wash, the immunoreactive proteins were visualized after the addition of 3,3′-diaminobenzidine (Dako, Trappes, France) for 2 min and then counterstained with hematoxylin. Control sections were treated without primary antibody.

HUVEC cells [2] = test: Scratch assay on HUVEC with or without mitomycin C; format: cell-based, human; conditions: HUVEC, 25 μM COB223, mitomycin C 2 μg/mL pretreatment, 24 h and 48 h
Method: Confluent cell monolayers were wounded with a plastic pipet tip, washed gently with phosphate buffer saline (PBS) and treated with complete media containing molecules, as indicated. Cells were placed at 37°C into the incubator and photographed at indicated times. Quantitation of closure of the monolayer was performed using the NIH Image J program (http://rsbweb.nih.gov/ij/). Results are expressed as percentage of wound closure at t = 24 h as compared to the initial wound at t = 0 h. […]
www.impactjournals.com/oncotarget/ Oncotarget, Supplementary Materials 2015 […]
Figure S1: Effect of COB223 on endothelial cell migration. (A) Scratch assay: Confluent HUVEC cells were pretreated for 24 h without (CTL) or with 2 μg/mL of mitomycin C before a wound was made in the cell monolayer. After wounding, cells were incubated at 37°C in the absence or the presence of 25 μM COB223. Wound closure was measured after 24 h and 48 h of incubation as described in Material and Methods. […]
as §1

[3] = tested on: p38 MAP kinase phosphorylation; test: p38 MAP kinase phosphorylation in HUVEC; format: cell-based, human; conditions: data not shown
[4] = tested on: neovascular response to FGF-2; test: Mouse sponge angiogenesis assay; format: in vivo; conditions: Balb/c mice, COB223 100 μM injected into sponge, day 7
Method: Disc Cellspon cellulose sponges (thickness 2 mm, diameter 10 mm, Cellomeda; Turku, Finland) were implanted under the skin of Balb-c mice under general anesthesia. Mice were divided in three groups receiving either DMSO, FGF-2, or FGF-2 and COB223 (groups of respectively 6, 7 and 8 mice). […] DMSO, FGF-2 and/or COB223 (50 μL) were injected again into the sponges through the skin on day 1 and 2. A third injection of COB223 alone was performed on day 4. On day 7, the vascularization of the sponges was imaged by non-invasive fluorescence imaging after i.p. injection of RAFT-(cRGD)4 (Angiostamp^TM, Fluoptics, Grenoble, France) as described in [9]. The mice were then anesthetized and sacrificed by cervical dislocation on day 7 and the sponges were rapidly excised and photographed. Each sponge was then homogenized in 1 mL RIPA lysis buffer and the supernatants were used for quantification. The extent of vascularization of the sponge implants was assessed by measuring the amount of hemoglobin using the Drabkin's reagent (Sigma).

[5] = non-necrotic part of treated tumors

CN(C)c1cccc2c(S(=O)(=O)NCCCN3CCN(CCCNC(=O)OC(C)(C)C)CC3)cccc12 [COB223, tert-Butyl 3-(4-(3-(5-(dimethylamino)naphthalene-1-sulfonamido)propyl)piperazin-1-yl) propylcarbamate]
migration towards fetal calf serum (Boyden chamber) (HUVEC cells [1]): significantly inhibited | kinase inhibition (Raf): None of them was inhibited | tumors with necrotic areas larger than 15% of their surface (LLC/2 tumor; COB223-treated tumors (untreated 20%)): 60% | density of the microvessels (CD31) (LLC/2 tumor; [5]): significant decrease | size (luminal surface) of the microvessels (CD31) (LLC/2 tumor; [5]): significant decrease | number of phospho-ERK1/2 and phospho-histone H3 positive cells (LLC/2 tumor; tumor sections): significantly decreased | endothelial cell wound closure in the presence of mitomycin C (HUVEC cells [2]): still inhibited | activation of p38 MAP kinase phosphorylation by VEGF or serum [3]: unaffected | neovascular response to FGF-2 (hemoglobin content and fluorescence imaging) [4]: strong inhibition
